# Measured values taken from PubChem BioAssay AID256 (DTP/NCI, 2004).
# Several values for one entry are separate records, joined by “and”; a condition that tells them apart may be missing. Identical values can stand only once. Inconclusive results and toxic doses are left out.
# Test system: CD2F1 mice, L1210 leukemia ip, survival T/C
# Assay: NCI In Vivo Anticancer Drug Screen. Data for tumor model L1210 Leukemia (intraperitoneal) in CD2F1 (CDF1) mice
# Conditions: higher = longer survival
# Outline: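 Transplantable tumor in mice; compound-treated vs vehicle-treated groups. Read-out = treated/control ratio of the measured endpoint.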
# [1] = endpoint: mean survival time, dose: 100.0 mg/kg/injection, schedule: Q01DX009 (ip), vehicle: saline with Tween-80
# [2] = endpoint: mean survival time, dose: 200.0 mg/kg/injection, schedule: Q01DX009 (ip), vehicle: saline with Tween-80
smiles,measurement,setting,value
Nc1ncn(C2OC(CO)C(O)C2O)c(=O)n1 (stereo not drawn),T/C,"endpoint: mean survival time, dose: 1.56 mg/kg/injection, schedule: Q01DX009 (ip), vehicle: saline",155 % of control and 166 % of control
same,T/C,"endpoint: mean survival time, dose: 1.56 mg/kg/injection, schedule: Q04DX003 (ip), vehicle: saline",117 % of control
same,T/C,"endpoint: mean survival time, dose: 3.12 mg/kg/injection, schedule: Q01DX009 (ip), vehicle: saline",176 % of control
same,T/C,"endpoint: mean survival time, dose: 3.12 mg/kg/injection, schedule: Q03HX024 (ip), vehicle: saline",296 % of control
same,T/C,"endpoint: mean survival time, dose: 3.12 mg/kg/injection, schedule: Q04DX003 (ip), vehicle: saline",119 % of control and 120 % of control and 123 % of control
same,T/C,"endpoint: mean survival time, dose: 6.25 mg/kg/injection, schedule: Q03HX024 (ip), vehicle: saline",325 % of control
same,T/C,"endpoint: mean survival time, dose: 6.25 mg/kg/injection, schedule: Q04DX003 (ip), vehicle: saline",121 % of control and 123 % of control
same,T/C,"endpoint: mean survival time, dose: 10.0 mg/kg/injection, schedule: Q04DX003 (ip), vehicle: saline",112 % of control
same,T/C,"endpoint: mean survival time, dose: 12.5 mg/kg/injection, schedule: Q03HX024 (ip), vehicle: saline",353 % of control
same,T/C,"endpoint: mean survival time, dose: 12.5 mg/kg/injection, schedule: Q04DX003 (ip), vehicle: saline",151 % of control
same,T/C,"endpoint: mean survival time, dose: 25.0 mg/kg/injection, schedule: Q03HX024 (ip), vehicle: saline",295 % of control
same,T/C,"endpoint: mean survival time, dose: 25.0 mg/kg/injection, schedule: Q04DX003 (ip), vehicle: saline",167 % of control
same,T/C,"endpoint: mean survival time, dose: 50.0 mg/kg/injection, schedule: Q03HX024 (ip), vehicle: saline",248 % of control
same,T/C,"endpoint: mean survival time, dose: 50.0 mg/kg/injection, schedule: Q04DX003 (ip), vehicle: saline",163 % of control and 173 % of control
same,T/C,"endpoint: mean survival time, dose: 100.0 mg/kg/injection, schedule: Q03HX024 (ip), vehicle: saline",124 % of control
same,T/C,"endpoint: mean survival time, dose: 200.0 mg/kg/injection, schedule: Q04DX003 (ip), vehicle: saline",182 % of control and 190 % of control and 200 % of control
same,T/C,"endpoint: mean survival time, dose: 400.0 mg/kg/injection, schedule: Q04DX003 (ip), vehicle: saline",222 % of control
same,T/C,"endpoint: mean survival time, dose: 800.0 mg/kg/injection, schedule: Q04DX003 (ip), vehicle: saline",269 % of control
same,T/C,"endpoint: mean survival time, dose: 1600.0 mg/kg/injection, schedule: Q04DX003 (ip), vehicle: saline",222 % of control
same,T/C,"endpoint: median survival time, dose: 1.56 mg/kg/injection, schedule: Q01DX009 (ip), vehicle: other",156 % of control
same,T/C,"endpoint: median survival time, dose: 2.3 mg/kg/injection, schedule: Q03HX024 (ip), vehicle: DMSO",292 % of control
same,T/C,"endpoint: median survival time, dose: 3.12 mg/kg/injection, schedule: Q01DX009 (ip), vehicle: other",163 % of control and 172 % of control
same,T/C,"endpoint: median survival time, dose: 3.12 mg/kg/injection, schedule: Q01DX009 (ip), vehicle: saline",162 % of control and 177 % of control
same,T/C,"endpoint: median survival time, dose: 4.0 mg/kg/injection, schedule: Q03HX024 (ip), vehicle: saline",348 % of control
same,T/C,"endpoint: median survival time, dose: 6.25 mg/kg/injection, schedule: Q01DX009 (ip), vehicle: DMSO",210 % of control and 228 % of control
same,T/C,"endpoint: median survival time, dose: 6.25 mg/kg/injection, schedule: Q01DX009 (ip), vehicle: other",192 % of control and 193 % of control
same,T/C,"endpoint: median survival time, dose: 6.25 mg/kg/injection, schedule: Q01DX009 (ip), vehicle: saline",198 % of control and 202 % of control and 212 % of control
same,T/C,"endpoint: median survival time, dose: 6.25 mg/kg/injection, schedule: Q01DX009 (oral), vehicle: DMSO",191 % of control
same,T/C,"endpoint: median survival time, dose: 7.0 mg/kg/injection, schedule: Q03HX008 (ip), vehicle: DMSO",179 % of control
same,T/C,"endpoint: median survival time, dose: 11.2 mg/kg/injection, schedule: Q01DX005 (ip), vehicle: DMSO",181 % of control
same,T/C,"endpoint: median survival time, dose: 11.2 mg/kg/injection, schedule: Q01DX005 (iv), vehicle: DMSO",176 % of control
same,T/C,"endpoint: median survival time, dose: 12.5 mg/kg/injection, schedule: Q01DX009 (ip), vehicle: DMSO",224 % of control and 258 % of control
same,T/C,"endpoint: median survival time, dose: 12.5 mg/kg/injection, schedule: Q01DX009 (ip), vehicle: other",214 % of control and 219 % of control
same,T/C,"endpoint: median survival time, dose: 12.5 mg/kg/injection, schedule: Q01DX009 (oral), vehicle: DMSO",225 % of control
same,T/C,"endpoint: median survival time, dose: 14.0 mg/kg/injection, schedule: Q03HX008 (ip), vehicle: DMSO",174 % of control
same,T/C,"endpoint: median survival time, dose: 22.5 mg/kg/injection, schedule: Q01DX005 (ip), vehicle: DMSO",187 % of control
same,T/C,"endpoint: median survival time, dose: 22.5 mg/kg/injection, schedule: Q01DX005 (iv), vehicle: DMSO",201 % of control
same,T/C,"endpoint: median survival time, dose: 25.0 mg/kg/injection, schedule: Q01DX009 (ip), vehicle: DMSO",260 % of control and 273 % of control
same,T/C,"endpoint: median survival time, dose: 25.0 mg/kg/injection, schedule: Q01DX009 (ip), vehicle: other",237 % of control and 265 % of control
same,T/C,"endpoint: median survival time, dose: 25.0 mg/kg/injection, schedule: Q01DX009 (oral), vehicle: DMSO",233 % of control
same,T/C,"endpoint: median survival time, dose: 28.1 mg/kg/injection, schedule: Q03HX008 (ip), vehicle: DMSO",186 % of control
same,T/C,"endpoint: median survival time, dose: 30.0 mg/kg/injection, schedule: Q01DX009 (ip), vehicle: saline",267 % of control and 278 % of control
same,T/C,"endpoint: median survival time, dose: 37.5 mg/kg/injection, schedule: Q04DX003 (ip), vehicle: DMSO",163 % of control
same,T/C,"endpoint: median survival time, dose: 44.0 mg/kg/injection, schedule: Q01DX009 (ip), vehicle: saline",278 % of control and 284 % of control
same,T/C,"endpoint: median survival time, dose: 45.0 mg/kg/injection, schedule: Q01DX005 (ip), vehicle: DMSO",208 % of control
same,T/C,"endpoint: median survival time, dose: 45.0 mg/kg/injection, schedule: Q01DX005 (iv), vehicle: DMSO",212 % of control
same,T/C,"endpoint: median survival time, dose: 50.0 mg/kg/injection, schedule: Q01DX009 (ip), vehicle: DMSO",289 % of control and 310 % of control
same,T/C,"endpoint: median survival time, dose: 50.0 mg/kg/injection, schedule: Q01DX009 (ip), vehicle: other",262 % of control and 289 % of control
same,T/C,"endpoint: median survival time, dose: 50.0 mg/kg/injection, schedule: Q01DX009 (oral), vehicle: DMSO",266 % of control
same,T/C,"endpoint: median survival time, dose: 56.2 mg/kg/injection, schedule: Q01DX001 (ip), vehicle: DMSO",123 % of control
same,T/C,"endpoint: median survival time, dose: 56.2 mg/kg/injection, schedule: Q03HX008 (ip), vehicle: DMSO",191 % of control
same,T/C,"endpoint: median survival time, dose: 67.0 mg/kg/injection, schedule: Q01DX009 (ip), vehicle: saline",326 % of control and 328 % of control
same,T/C,"endpoint: median survival time, dose: 75.0 mg/kg/injection, schedule: Q04DX003 (ip), vehicle: DMSO",173 % of control
same,T/C,"endpoint: median survival time, dose: 90.0 mg/kg/injection, schedule: Q01DX005 (ip), vehicle: DMSO",221 % of control
same,T/C,"endpoint: median survival time, dose: 90.0 mg/kg/injection, schedule: Q01DX005 (iv), vehicle: DMSO",242 % of control
same,T/C,"endpoint: median survival time, dose: 100.0 mg/kg/injection, schedule: Q01DX009 (ip), vehicle: DMSO",172 % of control
same,T/C,"endpoint: median survival time, dose: 100.0 mg/kg/injection, schedule: Q01DX009 (ip), vehicle: other",150 % of control and 277 % of control
same,T/C,"endpoint: median survival time, dose: 100.0 mg/kg/injection, schedule: Q01DX009 (oral), vehicle: DMSO",310 % of control
same,T/C,"endpoint: median survival time, dose: 112.5 mg/kg/injection, schedule: Q03HX008 (ip), vehicle: DMSO",198 % of control
same,T/C,"endpoint: median survival time, dose: 150.0 mg/kg/injection, schedule: Q04DX003 (ip), vehicle: DMSO",198 % of control
same,T/C,"endpoint: median survival time, dose: 180.0 mg/kg/injection, schedule: Q01DX005 (ip), vehicle: DMSO",242 % of control
same,T/C,"endpoint: median survival time, dose: 180.0 mg/kg/injection, schedule: Q01DX005 (iv), vehicle: DMSO",276 % of control
same,T/C,"endpoint: median survival time, dose: 200.0 mg/kg/injection, schedule: Q01DX009 (ip), vehicle: DMSO",123 % of control
same,T/C,"endpoint: median survival time, dose: 225.0 mg/kg/injection, schedule: Q01DX001 (iv), vehicle: DMSO",157 % of control
same,T/C,"endpoint: median survival time, dose: 225.0 mg/kg/injection, schedule: Q03HX008 (ip), vehicle: DMSO",180 % of control
same,T/C,"endpoint: median survival time, dose: 300.0 mg/kg/injection, schedule: Q04DX003 (ip), vehicle: DMSO",243 % of control
same,T/C,"endpoint: median survival time, dose: 400.0 mg/kg/injection, schedule: Q01DX009 (ip), vehicle: DMSO",117 % of control
same,T/C,"endpoint: median survival time, dose: 400.0 mg/kg/injection, schedule: Q01DX009 (ip), vehicle: saline",113 % of control
same,T/C,"endpoint: median survival time, dose: 400.0 mg/kg/injection, schedule: Q01DX009 (oral), vehicle: DMSO",117 % of control
same,T/C,"endpoint: median survival time, dose: 600.0 mg/kg/injection, schedule: Q04DX003 (ip), vehicle: DMSO",252 % of control
same,T/C,"endpoint: median survival time, dose: 900.0 mg/kg/injection, schedule: Q01DX001 (ip), vehicle: DMSO",162 % of control
same,T/C,"endpoint: median survival time, dose: 1200.0 mg/kg/injection, schedule: Q04DX003 (ip), vehicle: DMSO",284 % of control
same,T/C,"endpoint: median survival time, dose: 1800.0 mg/kg/injection, schedule: Q01DX001 (ip), vehicle: DMSO",191 % of control
same,T/C,"endpoint: median survival time, dose: 2400.0 mg/kg/injection, schedule: Q04DX003 (ip), vehicle: DMSO",290 % of control
same,T/C,"endpoint: median survival time, dose: 3600.0 mg/kg/injection, schedule: Q01DX001 (ip), vehicle: DMSO",223 % of control
C/C=C(\C)C(=O)OC1C(C)=C2C(C1OC(=O)CCCCC)C(C)(OC(C)=O)CC(OC(=O)CCC)C1(O)C2OC(=O)C1(C)O (stereo not drawn),T/C,"endpoint: median survival time, dose: 0.5 mg/kg/injection, schedule: Q01DX005 (ip), vehicle: Klucel (hydroxypropylcellulose) (HPC)",113 % of control
same,T/C,"endpoint: median survival time, dose: 1.0 mg/kg/injection, schedule: Q01DX005 (ip), vehicle: Klucel (hydroxypropylcellulose) (HPC)",118 % of control
same,T/C,"endpoint: median survival time, dose: 2.0 mg/kg/injection, schedule: Q01DX005 (ip), vehicle: Klucel (hydroxypropylcellulose) (HPC)",122 % of control
CC[N+]1(C)CCC(CN2c3ccccc3Sc3ccccc32)C1 (stereo not drawn),T/C,[1],93 % of control
same,T/C,[2],98 % of control
same,T/C,"endpoint: mean survival time, dose: 400.0 mg/kg/injection, schedule: Q01DX009 (ip), vehicle: saline with Tween-80",110 % of control
COc1cc(C(=O)N/N=C/c2ccc(N(C)C)cc2)cc(OC)c1OC,T/C,[1],119 % of control
same,T/C,[2],98 % of control
